Two compounds from patent US11452705B2, “Oral drug delivery composition containing oxaliplatin and method for preparing same” (ICURE BNP CO., LTD., priority 2017, dated 2022) can be followed below.

For orientation: Cmax means the maximum level reached in the sampled fluid or tissue. Usually Tmax stands for the time from dosing to the highest level. Broadly, the half-life is the time needed for the level to fall by half in the phase considered. Lower therefore signals fast loss.

A short description of series [1]: Artificial intestinal membrane permeability (PAMPA). Particulars: aqueous solution (control), PBS pH 6.8, 5 hours, room temperature. The format is in vitro ADME. On the procedure:
Then, 200 μL was added to the donor of each well of the PAMPA plate, and 300 μL of buffer (PBS, pH 6.8) was added to each well of the receptor plate. The plate assembly was set by coupling the donor plate with the receiver plate. After 5 hours at room temperature, samples were withdrawn from donors and receptors in each well of the PAMPA plate, and the concentration was measured as follows.
The mobile phase consisted of water (pH 3.0 adjusted with phosphoric acid)-acetonitrile (99:1, v/v) and was run at a flow rate of 0.8 mL/min.
For 5-FU, injected into an HPLC system equipped with a C18 column (4.6×250 mm, 5 μm, 100 Δ; 20 μL injection), and were chromatographed using an isocratic mobile phase of deionized water (pH 3.2 adjusted with phosphoric acid) at a flow rate of 0.8 mL/min. The UV detection was carried out at 260 nm.
Effective permeability (Pe) of each drug was calculated using the following formula. Pe=−ln[1−CA(t)/Cequilibrium]/[A(1/VD+1/VA)×t]
(Pe: permeability (cm/s); A: Effective filter area (f×0.3 cm^2; f: Porosity of the filter (f=0.76)); VD: volume of the donor well (0.2 mL); VA: volume of Receptor well (0.3 mL); t: the total time of incubation in seconds (s); CA(t): concentration of drug in the receptor well at time t; Cequilibrium: [CD(t)×VD+CA(t)×VA]/(VD+VA); CD(t): concentration of residual drug in donor at time t)

Series [2] in a line: In vivo oral absorption in rats, plasma OXA (Pt by AAS). Particulars: rat. On the procedure: (§1) After oral and intravenous administration, 200 μL of blood was collected from a capillary in the retro-orbital plexus at different time intervals and directly mixed with 50 μL of sodium citrate (3.8% solution). Blood samples were then immediately centrifuged (2,500×g, 15 minutes, 4° C.). The plasma samples were isolated and kept frozen at −70° C. until analysis.
Before analysis, the sample was diluted with 10 mL of 3% nitric acid solution and then injected into the furnace for AAS analysis. All measurements were carried out using a Thermo Scientific iCE 3500 AAS (Thermo Fisher Scientific) equipped with a GFS35 graphite furnace and a GFS35Z autosampler. Argon was used as the purging gas at 200 mL/min, and the injection volume of the sample was 20 μL. The spectrometer was provided with a Zeeman-based background corrector, and the […].

Series [3] in a line: In vitro intestinal cell membrane permeability across Caco-2 cell monolayer. The format is in vitro ADME. The following applies: human, Solution in HBSS (control), apical to basolateral, 37° C., read-out: Apparent permeability (Papp). (Passage across Caco-2 layers is used to estimate intestinal permeability.)
Protocol: Caco-2 cells were seeded onto each well of 12-well Transwell® filter insert (pore size: 0.4 μm, surface area: 1.12 cm^2; Corning, N.Y., USA) at a density of 3×10^5 cells/well. Dulbecco's modified Eagle's medium (DMEM; Lonza, Basel, Switzerland) medium containing 10% fetal bovine serum (FBS; Gibco, Thermo Fisher Scientific) and 1% penicillin/streptomycin (Gibco) was changed every 48 hours for 21 to 29 days, and Caco-2 cell monolayers with a transepithelial electrical resistance (TEER) of >350 Ω·cm^2 were used for in vitro intestinal membrane permeability experiments.
First, the culture medium was removed and the monolayer was pre-incubated with 0.5 mL of Hanks' balanced salt solution (HBSS) for 20 min at 37° C. […] After processing the sample, 100-μL samples were taken from the basolateral compartment at 0.5, 1, 2, 3, 4, and 5 h. The samples were filtered through a membrane filter.
Series [4] can be described thus: Drug release (dissolution) test, USP type 1 apparatus (basket). The series is classed as physicochemical. The following applies: pH 1.2, within 15 min. On the procedure:
Dissolution tests were performed in 500 mL of medium containint 0.1 N HCl solution (pH 1.2) or phosphate buffer (pH 6.8) at 37±0.2° C., using the USP type 1 apparatus (basket) rotating at 100 rpm.
Each capsule was subjected to a dissolution test, and 1-mL samples were withdrawn at 15, 30, 45, 60, 90, and 120 min. After filtration, the amount of drug released was quantified by the HPLC using a UV detector, as in Example 7, and the results are shown in FIG. 6.

Series [5] in a line: In vivo oral absorption in rats, plasma 5-FU (HPLC). The following applies: rat. On the procedure:
as §1
To determine the plasma concentration of 5-FU, 100 μL of each standard and plasma samples were diluted with 50 μL of 20 μg/mL internal standard (IS, chlorouracil) and 100 μL of saturated ammonium sulfate solution. After vortexing for 1 min, the diluted plasma sample was extracted with a 2-mL solvent mixture of propanol and diethylether (80:20, v/v). The mixture was then centrifuged at 2,500×g for 10 min and the collected organic phase was evaporated under nitrogen at 37° C. The dried residues were reconstituted with 100 μL of mobile phase for HPLC analysis (ammonium phosphate buffer with pH 6.8/methanol, 98:2, v/v), followed by vortexing, and then determined by HPLC with a C8 column (4.6×250 mm, 5 μm) at a flow rate of 1 mL/min mobile phase. A 50-μL sample was injected and 5-FU was measured at 260 nm.

Series [6] concerns CT26 mouse colon tumor cells. Put plainly: In vivo tumor growth inhibition, CT26 tumor-bearing mice. The arrangement: species or system BALB/c mice. The procedure: The CT26 mouse colon tumor cells were subcutaneously grafted into the flanks of BALB/c mice at a concentration of 1×10^6 cells/100 μL of PBS (pH 7.4). […] During 18-day treatment, mice were fasted for 4 h before oral administration and 2 h after administration. Tumors were measured every three days in two dimensions using a caliper, and tumor volumes were calculated as a^2×b×0.52, where a=width and b=length. Body weight was also measured.
At 18 days after administration, the isolated tumors masses were measured, and tumor tissues were fixed in 10% formalin for histological evaluation. Staining with proliferating cell nuclear antigen (PCNA) for cell proliferation and fluorescent terminal deoxynucleotidyl transferase-mediated dUPT nick end labeling (TUNEL) for apoptosis were carried out.

Turning to `O=C([O-])C(=O)[O-].[NH-][C@@H]1CCCC[C@H]1[NH-].[Pt+4]` (relative stereo) [OXA, cis-[(1R,2R)-1,2-cyclohexanediamine-N,N′][oxalato(2-)-O,O′]platinum], the “Effective permeability (Pe)” value in series [1] is reported as 0.54±0.12 ×10^−6 cm/s. Further, in series [2] (intravenous, OXA 5 mg/kg), the AUCinf worked out at 2537 ± 1312 ng·h/mL, the AUClast stood at 1962 ± 746 ng·h/mL, the Cmax was 2454 ± 990 ng/mL and the T1/2 is 186.2 ± 126.8 min. In series [2] (intravenous, OXA 5 mg/kg (reference)), this compound registered a Bioavailability of 100%. In series [2] (oral, OXA 10 mg/kg), this compound showed an AUCinf of 170 ± 61 ng·h/mL, an AUClast of 111 ± 95 ng·h/mL, a Bioavailability of 2.824 ± 2.428% and a Cmax of 32 ± 14 ng/mL. In addition, in series [2] (oral, OXA 10 mg/kg), the T1/2 was 91.68 ± 54 min and the Tmax amounted to 110 ± 17.3 min.

`O=c1[nH]cc(F)c(=O)[nH]1` [Composition 5-FU, 5-fluorouracil]: the “Effective permeability (Pe)” value in series [1] is on record as 1.27±0.46 ×10^−6 cm/s. Moreover, the Papp A→B at 5 h, 384.4 μM in series [3] came out at 3.46 ± 1.22 ×10⁻⁶ cm/s. Also, the “Drug released from the nanoemulsions” value in series [4] is reported as “at least 85%”. For the same compound, in series [5] (plasma, oral, 5-FU 20 mg/kg), the half-life was 48.8 ± 34 min. Further, in series [5] (intravenous, 5-FU 5 mg/kg), the AUCinf worked out at 670 ± 221 ng·h/mL, the AUClast was 657 ± 220 ng·h/mL, the Cmax stood at 716 ± 124 ng/mL and the T1/2 was 45.6 ± 6.54 min. Further, the Bioavailability in series [5] (intravenous, 5-FU 5 mg/kg (reference)) is listed as 100%. In series [5] (oral, 5-FU 20 mg/kg), this compound yielded an AUCinf of 287 ± 96 ng·h/mL, an AUClast of 242 ± 58 ng·h/mL, a Bioavailability of 9.218 ± 2.198% and a Cmax of 92 ± 8 ng/mL. The time to peak (Tmax) in series [5] (oral, 5-FU 20 mg/kg) amounted to 30 ± 0 min. In addition, the “Effect of inhibiting tumor growth compared with the group administered orally with the OXA/DCK aqueous solution” value in series [6] (once daily oral 10 mg/kg 5-FU in water) is “did not show a significant difference”. Besides, the “Inhibition of tumor growth (tumor volume) compared to the control” value in series [6] (once daily oral, 18-day treatment, 10 mg/kg OXA and/or 10 mg/kg 5-FU) was determined as 57.9%.
